From patent EP0560267B1, “Isosteric antiherpes peptide derivatives” (BOEHRINGER INGELHEIM (CANADA) LTD., priority 1992, dated 1993)
Read-outs that look alike come from different tables or passages of the source.

Columns and labels:
HSV-2 = experiment: Inhibition of Herpes Simplex Virus (HSV-2) replication in cell culture; assay type: cell-based
Method: Inhibition of Herpes Simplex Virus (HSV-2) Replication in Cell Culture
BHK-21/C13 cells (ATCC CCL 10) are incubated for two days in 150 cm^2 T-flasks (1.5 x 10^6 cells/flask) with alpha-MEM medium (Gibco Canada Inc., Burlington, Ontario, Canada) supplemented with 8% (v/v) fetal bovine serum (FBS, Gibco Canada Inc.). The cells are trypsinized and then transferred to fresh media in a 24 well plate to give 2.5 x 10^5 cells in 750 µL of media per well. The cells are incubated at 37° for a period of 6 h to allow them to adhere to the plate. Thereafter, the cells are washed once with 500 µL of alpha-MEM supplemented with 0.5% (v/v) FBS and then incubated with 750 µL of the same media (low serum) for 3 days. After this period of serum starvation, the low serum medium is removed and the cells are incubated in 500 µL of BBMT for 2 to 3 hours. {BBMT medium is described by P. Brazeau et al., Proc. Natl. Acad. Sci. USA, 79, 7909 (1982).} Thereafter, the cells are infected with HSV-2 (multiplicity of infection = 0.02 PFU/cell) in 100 µL of BBMT medium. (Note: The HSV-2 used was strain HG-52, see Y. Langelier and G. Buttin, J. Gen. Virol., 57, 21 (1981); the virus was stored at -80°.) Following 1 h of virus adsorption at 37°, the media is removed and the cells are washed with BBMT (3 X 250 µL). The cells in each well are incubated with or without (control) appropriate concentrations of the test agent dissolved in 200 µL of BBMT medium. After 29 h of incubation at 37°, the infected cells are harvested by first freezing the plate at -80°, followed by thawing. The cells in each well are scraped off the surface of the well with the help of the melting ice fragments. After complete thawing, the cell suspensions are collected and each well is rinsed with 150 µL of BBMT medium. The viral sample (suspension plus washing) is sonicated gently for 4 min at 4°. Cell debris are removed by centrifugation (1000 times gravity for 10 minutes at 4°). The supernatant is collected and stored at -80° until determination of viral titer.
Viral titration was performed by a modification of the colorimetric assay method of M. Langlois et al., Journal of Biological Standardization, 14, 201 (1986).
More specifically, in a similar manner as described above, BHK-21/C13 cells are trypsinized and transferred to fresh media in a 96 well microtiter plate to give 20,000 cells in 100 µL of media per well. The cells in the prepared plate are incubated at 37° for 2 h. During that time, the viral sample is thawed and sonicated gently for 15 seconds, and log dilutions of the sample are prepared (1/5 sequential: 50 µL of the sample plus 200 µL of BBMT medium, sequential dilutions being done with a multichannel pipette.
On completion of the above 2 hour incubation of the BHK-21/C13 cells, the media is replaced with alpha-MEM medium supplemented with 3% (v/v) FBS. The cells are now ready to be infected with the various sample dilutions of virus. Aliquots (50 µL) of the various dilutions are transferred into the appropriate wells of the plate. The resulting infected cells are incubated for 2 days at 37°. Then 50 µL of a 0.15% (v/v) solution of neutral red dye in Hank's Balanced Salt Solution (pH 7.3, Gibco Canada Inc.) is added to each well. The prepared plate is incubated for 45 min at 37°. Medium from each well is then aspirated and the cells are washed once with 200 µL of Hank's Balanced Salt Solution. […]

[1] = molecular target: T1, HSV-1 ribonucleotide reductase (Human herpesvirus 1, UniProt P08543); experiment: Inhibition of Herpes Simplex Virus (HSV-1) ribonucleotide reductase; assay type: biochemical
T1 construct: HSV-1 ribonucleotide reductase (partially purified) was obtained from quiescent BHK-21/C13 cells infected with strain F HSV-1 virus; made in house; host or cells: quiescent BHK-21/C13 cells infected with HSV-1 strain F (virus-encoded enzyme, partially purified)
Excerpt: Inhibition of Herpes Simplex Virus (HSV-1) Ribonucleotide Reductase
• a) Preparation of Enzyme HSV-1 ribonucleotide reductase (partially purified) was obtained from quiescent BHK-21/C13 cells infected with strain F HSV-1 virus at 10 plaque forming units/cell as described by E.A. Cohen et al., J. Gen. Virol., 66, 733 (1985). • b) Assay and Results for Exemplified Peptides By following the procedure described by P. Gaudreau et al., J. Biol, Chem., 262, 12413 (1987), the assay results listed in the following Table I were obtained. The assay result for each exemplified compound of formula 1 is expressed as the concentration of the compound producing 50% of the maximal inhibition (IC50) of enzyme activity. The number of units of the enzyme preparation used in each assay was constant, based on the specific activity of the enzyme preparation. The results are relative to the activity obtained in control experiments without the test compound and represent the mean of four assays that varied less than 10% with each other.

[2] = Human alphaherpesvirus 2, Table IV, cell culture assay of example 11, read-out: EC50
[3] = Human alphaherpesvirus 2, BHK21 (C13), 29 h, Table II, BHK-21/C13 cells, HSV-2 strain HG-52, 0.02 PFU/cell, 29 h incubation, read-out: EC50
[4] = Table I, partially purified enzyme from BHK-21/C13 cells infected with strain F HSV-1, mean of four assays

T1 sequence (P08543 whole entry): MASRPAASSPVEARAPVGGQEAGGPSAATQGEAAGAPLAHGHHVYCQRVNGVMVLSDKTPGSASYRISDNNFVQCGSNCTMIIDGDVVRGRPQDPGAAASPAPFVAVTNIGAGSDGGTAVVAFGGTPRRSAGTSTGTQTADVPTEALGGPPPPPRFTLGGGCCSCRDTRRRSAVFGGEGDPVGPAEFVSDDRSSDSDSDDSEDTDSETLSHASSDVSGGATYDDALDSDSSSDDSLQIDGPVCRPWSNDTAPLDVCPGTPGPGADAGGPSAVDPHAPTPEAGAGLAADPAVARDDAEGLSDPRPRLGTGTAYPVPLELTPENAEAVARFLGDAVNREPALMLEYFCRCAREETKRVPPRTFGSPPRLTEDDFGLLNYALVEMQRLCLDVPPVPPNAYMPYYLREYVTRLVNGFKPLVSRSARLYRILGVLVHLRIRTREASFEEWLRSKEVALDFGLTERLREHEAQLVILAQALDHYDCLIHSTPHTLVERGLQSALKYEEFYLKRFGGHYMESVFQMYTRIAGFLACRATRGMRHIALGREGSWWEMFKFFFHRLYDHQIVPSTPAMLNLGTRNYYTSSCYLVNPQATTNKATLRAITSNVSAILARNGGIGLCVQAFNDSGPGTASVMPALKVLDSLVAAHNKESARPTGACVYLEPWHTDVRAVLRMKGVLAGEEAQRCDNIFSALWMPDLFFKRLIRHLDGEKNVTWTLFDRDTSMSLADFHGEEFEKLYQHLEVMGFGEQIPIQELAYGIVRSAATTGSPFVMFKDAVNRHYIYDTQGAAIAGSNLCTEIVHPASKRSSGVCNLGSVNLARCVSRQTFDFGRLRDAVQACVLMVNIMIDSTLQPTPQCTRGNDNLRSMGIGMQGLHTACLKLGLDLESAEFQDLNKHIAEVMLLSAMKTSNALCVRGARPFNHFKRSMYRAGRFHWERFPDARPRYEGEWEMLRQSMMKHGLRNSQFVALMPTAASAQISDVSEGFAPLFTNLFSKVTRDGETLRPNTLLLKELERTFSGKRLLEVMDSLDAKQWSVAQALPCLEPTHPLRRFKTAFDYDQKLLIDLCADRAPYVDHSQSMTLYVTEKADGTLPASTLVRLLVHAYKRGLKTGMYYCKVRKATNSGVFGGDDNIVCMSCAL

Row | Compound | EC50 (HSV-2; [2]) | IC50 ([1]; Table IV, assay of example 10) | IC50 [1, 4] | other results
1 | CCCC(CC)NC(=O)NC(C(=O)CC(CC(=O)C(C)(C)C)C(=O)NC(C(=O)NCC(C)(C)C)C1(C(=O)O)CCCC1)C(C)(C)C [(R,S)-EtPrCH-NHC(O) / NHCH2CMe3, (R,S)-EtPrCH-NHC(O)-Tbg-CH2-(R)-CH(CH2C(O)CMe3)C(O)-Asp(cyPn)-NHCH2CMe3] | 35 µM | 0.23 µM | – | –
2 | CCCCC(CCCC)NC(=O)NC(C(=O)CC(CC(=O)C(C)(C)C)C(=O)NC(C(=O)NCC(C)(C)C)C1(C(=O)O)CCCC1)C(C)(C)C [Bu2CHNHC(O) / NHCH2CMe3, Bu2CHNHC(O)-Tbg-CH2-(R)-CH(CH2C(O)CMe3)C(O)-Asp(cyPn)-NHCH2CMe3] | 65 µM | 0.53 µM | – | –
3 | CCC(CC)NC(=O)NC(C(=O)CC(CC(=O)C(C)(C)C)C(=O)NC(C(=O)NCC(C)(C)C)C1(C(=O)O)CCCC1)C(C)(C)C [Et2CHNHC(O)-Tbg-CH2-(R)-CH(CH2C(O)-CMe3)C(O)-Asp(cyPn)-NHCH2CMe3] | – | – | 0.23 µM | EC50 (HSV-2; [3]): 56 µM
4 | CCC(CC)NC(=O)NC(C(=O)CC(CC(=O)C1CCCC1)C(=O)NC(C(=O)NCC(C)(C)C)C1(C(=O)O)CCCC1)C(C)(C)C [Et2CHNHC(O)-Tbg-CH2-(R)-CH{CH2C(O)-(cyclopentyl)}C(O)-Asp(cyPn)-NHCH2CMe3] | – | – | 0.22 µM | EC50 (HSV-2; Human alphaherpesvirus 2, BHK21 (C13), 29 h): 50 µM
5 | CCC(CC)NC(=O)NC(C(=O)CC(CC(=O)N1CCCC1)C(=O)NC(C(=O)NC(CO)CC(C)(C)C)C1(C(=O)O)CCCC1)C(C)(C)C [Et2CHNHC(O)-Tbg-CH2-(S)-CH{CH2C(O)-(pyrrolidino)}C(O)-Asp(cyPn)-γMeLeucinol] | – | – | 0.17 µM | EC50 (HSV-2; [3]): 200 µM
6 | CCCC(CC)(CCC)NC(=O)NC(C(=O)CC(CC(=O)C(C)(C)C)C(=O)NC(C(=O)NC(CC)C(C)(C)C)C1(C(=O)O)CCCC1)C(C)(C)C [EtPr2CNHC(O) / NH-(R)-CH(Et)CMe3, EtPr2CNHC(O)-Tbg-CH2-(R)-CH(CH2C(O)CMe3)C(O)-Asp(cyPn)-NH-(R)-CH(Et)CMe3] | 6 µM | 0.36 µM | – | –
7 | CCCC(CC)(CCC)NC(=O)NC(C(=O)CC(CC(=O)C(C)(C)C)C(=O)NC(C(=O)NC(C)C(C)(C)C)C1(C(=O)O)CCCC1)C(C)(C)C [EtPr2CNHC(O) / NH-(R)-CH(Me)CMe3, EtPr2CNHC(O)-Tbg-CH2-(R)-CH(CH2C(O)CMe3)C(O)-Asp(cyPn)-NH-(R)-CH(Me)CMe3] | 10 µM | 0.41 µM | – | –
8 | CCCC(C)(C)NC(=O)NC(C(=O)CC(CC(=O)C(C)(C)C)C(=O)NC(C(=O)NCC(C)(C)C)C1(C(=O)O)CCCC1)C(C)(C)C [Me2PrCNHC(O) / NHCH2CMe3, Me2PrCNHC(O)-Tbg-CH2-(R)-CH(CH2C(O)CMe3)C(O)-Asp(cyPn)-NHCH2CMe3] | 58 µM | 0.39 µM | – | –
9 | CCCC(C)(CCC)NC(=O)NC(C(=O)CC(CC(=O)C(C)(C)C)C(=O)NC(C(=O)NCC(C)(C)CC)C1(C(=O)O)CCCC1)C(C)(C)C [MePr2CHNHC(O) / NHCH2CMe2Et, MePr2CHNHC(O)-Tbg-CH2-(R)-CH(CH2C(O)CMe3)C(O)-Asp(cyPn)-NHCH2CMe2Et] | – | 0.36 µM | – | EC50 (HSV-2; Human alphaherpesvirus 2, Table IV, cell culture assay of example 11): 29 µM
